# Legend:
# [1] = Toxicity, mice, oral (lethality); details: mouse, in vivo
# [2] = tested on: stomach mucosa of Wistar rats; assay: Ulcer test (ulcer-inducing effect in rats); format: in vivo, Wistar rat; details: rat
# Method: J. Toxicol. […] A bleeding stomach ulcer is induced by oral administration of the active principle. After 3.5 hours, the animals are killed, their stomachs removed, cut open along the major curvature and stretched across a Styropor plate. The frequency and extent of average ulcer formation in the test and control groups is determined.
# Wistar rats = assay: Adjuvant arthritis (C. M. PEARSON), Freund's adjuvant; format: in vivo, Wistar rat; details: rat
# Method: 3. Adjuvant arthritis (C. M. PEARSON, proc.Soc.exp.Biol. 91, 95-101 (1956)
# 10 Wistar rats weighing from 120 g to 150 g are used per dose. The same number of animals is used for control purposes. An arthritis is induced by the administration of 0.5 ml of Freund's adjuvant by subplantar injection. The test lasts 17 days. At the beginning of the test, the paw volume of all four extremities is determined and used as the starting value. […] For evaluation purposes, the difference between the starting volume and final volume of the paws both of the test group and of the control group is calculated and inhibition expressed as a percentage.
# rats [3] = assay: Granuloma test (Cotton pellet test) according to R. MEIER; format: in vivo; details: rat
# Source text: Granuloma test (Cotton pellet test) according to R. MEIER et al. Experientia 6, 469 (1950)
# In this test, cottonwool pellets impregnated with croton oil were implanted subcutaneously in the test animals (rats) to induce the formation of granulomas in the connective tissue. After the animals had been killed, the granulomas were excised and weighed moist or dry. The anti-proliferative effect of an antiphlogistic is reflected in light weights of the granulomas by comparison with untreated controls.
# rats [4] = assay: Rat paw oedema test (HILLEBRECHT), carragenin; format: in vivo; details: 3 hours, relative to control group
# Method: Determination of antiphlogistic activity by HILLEBRECHT's rat paw oedema test (J. HILLEBRECHT, Arzeim. Forsch. 1954, Vol. 4, page 607). An oedema was produced in one of the rear paws of rats weighing from 120 g to 150 g by the subplantar injection of carragenin (0.5% in a 0.9% NaCl-solution) in a quantity of 0.1 ml of solution per paw. After administration of the test substance, which generally should not exceed a volume of 10 ml per kg of body weight, the volume of the paw is determined in an overflow. After 3 hours, the final value is determined. For each dose, the test is carried out with 10 test animals and 10 control animals of one sex and repeated with the same number of animals of the other sex. For the purposes of evaluation, inhibition of the oedema is expressed as a percentage on relation to the control group.
# [5] = 1 mg/kg p.o. (1.0 for Indometacin), 7th day p.i.
# [6] = 1 mg/kg p.o. (1.0 for Indometacin), 14th day p.i.
# [7] = 1 mg/kg p.o. (1.0 for Indometacin), 17th day p.i.
# [8] = 1.0 mg/kg p.o. (printed 1 for Indometacin)
smiles,measurement,setting,value
"O=c1c2ccccc2sn1-c1ccc(Cl)cc1 [2-(4-chlorophenyl)-1,2-benzisothiazol-3(2H)-one]",mortality,[1]; 3 160 mg/kg p.o.,0%
same,Ulcer-inducing effect,"[2]; 1 mg/kg p.o., 3.5 hours",0
same,Ulcer-inducing effect,"[2]; 10 mg/kg p.o., 3.5 hours",0
same,Ulcer-inducing effect,"[2]; 100 mg/kg p.o., 3.5 hours",0
same,"Inhibition (adjuvant arthritis, paw volume)",Wistar rats; [5],-27%
same,"Inhibition (adjuvant arthritis, paw volume)",Wistar rats; [6],-44%
same,"Inhibition (adjuvant arthritis, paw volume)",Wistar rats; [7],-45%
same,"Inhibition (adjuvant arthritis, paw volume)","Wistar rats; 3.2 mg/kg p.o., 7th day p.i.",-46%
same,"Inhibition (adjuvant arthritis, paw volume)","Wistar rats; 3.2 mg/kg p.o., 14th day p.i.",-51%
same,"Inhibition (adjuvant arthritis, paw volume)","Wistar rats; 3.2 mg/kg p.o., 17th day p.i.",-56%
same,Reduction in weight of the granulomas,rats [3]; 0.1 mg/kg p.o.,-26%
same,Reduction in weight of the granulomas,rats [3]; [8],-43%
same,Reduction in weight of the granulomas,rats [3]; 10 mg/kg p.o.,-44%
same,Oedema inhibition,rats [4]; 0.01 mg/kg p.o.,-13%
same,Oedema inhibition,rats [4]; 0.1 mg/kg p.o.,-22%
same,Oedema inhibition,rats [4]; 1.0 mg/kg p.o.,-36%
"COc1ccc2c(c1)c(CC(=O)O)c(C)n2C(=O)c1ccc(Cl)cc1 [Indometacin, 1-(p-chlorobenzoyl)-5-methoxy-2-methyl-3-indole acetic acid, reference compound]",mortality,[1]; 38 mg/kg p.o.,50%
same,Ulcer-inducing effect,"[2]; in vivo, po, 3.2 mg/kg",++
same,Ulcer-inducing effect,"[2]; in vivo, po, 5.6 mg/kg",+++
same,Ulcer-inducing effect,"[2]; in vivo, po, 7.5 mg/kg",+++
same,"Inhibition (adjuvant arthritis, paw volume)","Wistar rats; 0.32 mg/kg p.o., 7th day p.i.",-20%
same,"Inhibition (adjuvant arthritis, paw volume)","Wistar rats; 0.32 mg/kg p.o., 14th day p.i.",-26%
same,"Inhibition (adjuvant arthritis, paw volume)","Wistar rats; 0.32 mg/kg p.o., 17th day p.i.",-33%
same,"Inhibition (adjuvant arthritis, paw volume)",Wistar rats; [5],-50%
same,"Inhibition (adjuvant arthritis, paw volume)",Wistar rats; [6],-40%
same,"Inhibition (adjuvant arthritis, paw volume)",Wistar rats; [7],-40%
same,Reduction in weight of the granulomas,rats [3]; [8],-21%
same,Reduction in weight of the granulomas,rats [3]; 3.2 mg/kg p.o.,-7%
same,Reduction in weight of the granulomas,rats [3]; 5.6 mg/kg p.o.,-6%
same,Oedema inhibition,rats [4]; 3.8 mg/kg p.o.,-26%
same,Oedema inhibition,rats [4]; 5.6 mg/kg p.o.,-45%

# Reference: patent US4397858A, “Treatment of rheumatism and arteriosclerosis with n-halogenophenyl-benzisothiazoles” (A. Nattermann & Cie GmbH, priority 1980, dated 1983)
